Measurements as given in patent publication US9828396B2, “Alkyne compounds for treatment of complement mediated disorders” (Achillion Pharmaceuticals, Inc., priority 2014, dated 2017).

Biological target: Human factor D (Homo sapiens (Human), UniProt P00746)
Experiment: Human Factor D Assay
Format: biochemical
Conditions: Human factor D 80 nM, substrate Z-L-Lys-SBzl, assay of Example 12
Method: Example 12. Human Factor D Assay
Human factor D (purified from human serum, Complement Technology, Inc.) at 80 nM final concentration is incubated with test compound at various concentrations for 5 minutes at room temperature in 50 mM Tris, 1M NaCl, pH 7.5. A synthetic substrate Z-L-Lys-SBzl and DTNB (Ellman's reagent) are added to final concentrations of 100 μM each. The increase in color is recorded at OD405 nm in a microplate in kinetic mode over 30 minutes with 30 second time points in a spectrofluorimeter. IC50 values are calculated by non-linear regression from the percentage of inhibition of complement factor D activity as a function of test compound concentration.

Chain of Human factor D (P00746 26-253): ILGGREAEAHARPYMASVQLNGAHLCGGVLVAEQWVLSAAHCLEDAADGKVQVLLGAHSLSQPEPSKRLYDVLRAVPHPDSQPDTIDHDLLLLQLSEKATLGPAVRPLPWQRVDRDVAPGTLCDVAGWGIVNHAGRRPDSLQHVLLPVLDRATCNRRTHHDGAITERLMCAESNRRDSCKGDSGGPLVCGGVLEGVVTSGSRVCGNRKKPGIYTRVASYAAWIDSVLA

| Compound | IC50 |
| --- | --- |
| NC(=O)c1nn(CC(=O)N2C[C@H](F)C[C@H]2C(=O)NCc2cccc(Cl)c2F)c2ccc(C#Cc3cccc(N)n3)cc12 [Compound 36, 5-((6-aminopyridin-2-yl)ethynyl)-1-(2-((2S,4R)-2-(3-chloro-2-fluorobenzylcarbamoyl)-4-fluoropyrrolidin-1-yl)-2-oxoethyl)-1H-indazole-3-carboxamide] | < 1000 nM |
| NC(=O)c1nn(CC(=O)N2C[C@H](F)C[C@H]2C(=O)Nc2cncc(-c3cc(F)c(F)cc3Cl)n2)c2ccc(C#Cc3ncc(F)cn3)cc12 [Compound 87, 1-(2-((2S,4R)-2-(6-(2-chloro-4,5-difluorophenyl)pyrazin-2-ylcarbamoyl)-4-fluoropyrrolidin-1-yl)-2-oxoethyl)-5-((5-fluoropyrimidin-2-yl)ethynyl)-1H-indazole-3-carboxamide] | < 1000 nM |
| NC(=O)c1nn(CC(=O)N2C[C@H](F)C[C@H]2C(=O)Nc2cncc(Br)c2)c2ccc(C#Cc3ncc(F)cn3)cc12 [Compound 68, 1-(2-((2S,4R)-2-(5-bromopyridin-3-ylcarbamoyl)-4-fluoropyrrolidin-1-yl)-2-oxoethyl)-5-((5-fluoropyrimidin-2-yl)ethynyl)-1H-indazole-3-carboxamide] | < 1000 nM |
| CC(=O)c1cn(CC(=O)N2C[C@H](F)C[C@H]2C(=O)Nc2cccc(Br)n2)c2ccc(C#Cc3ncccn3)cc12 [Compound 42, (2S,4R)-1-(2-(3-acetyl-5-(pyrimidin-2-ylethynyl)-1H-indol-1-yl)acetyl)-N-(6-bromopyridin-2-yl)-4-fluoropyrrolidine-2-carboxamide] | < 1000 nM |
| NC(=O)c1nn(CC(=O)N2C[C@H](F)C[C@H]2C(=O)Nc2cccc(-c3ccccc3Cl)c2F)c2ccc(C#Cc3cccnn3)cc12 [Compound 73, 1-(2-((2S,4R)-2-(2′-chloro-2-fluorobiphenyl-3-ylcarbamoyl)-4-fluoropyrrolidin-1-yl)-2-oxoethyl)-5-(pyridazin-3-ylethynyl)-1H-indazole-3-carboxamide] | < 1000 nM |
| NC(=O)c1nn(CC(=O)N2C[C@H](F)C[C@H]2C(=O)Nc2cccc(Cl)n2)c2ccc(C#Cc3ncc(F)cn3)cc12 [Compound 88, 1-(2-((2S,4R)-2-(6-chloropyridin-2-ylcarbamoyl)-4-fluoropyrrolidin-1-yl)-2-oxoethyl)-5-((5-fluoropyrimidin-2-yl)ethynyl)-1H-indazole-3-carboxamide] | < 1000 nM |
| NC(=O)c1nn(CC(=O)N2C[C@H](F)C[C@H]2C(=O)Nc2cccc(Br)n2)c2ccc(C#Cc3ccccn3)cc12 [Compound 48, 1-(2-((2S,4R)-2-(6-bromopyridin-2-ylcarbamoyl)-4-fluoropyrrolidin-1-yl)-2-oxoethyl)-5-(pyridin-2-ylethynyl)-1H-indazole-3-carboxamide] | < 1000 nM |
| NC(=O)c1nn(CC(=O)N2C[C@H](F)C[C@H]2C(=O)Nc2ccc3cccc(Cl)c3n2)c2ccc(C#Cc3ncc(F)cn3)cc12 [Compound 71, 1-(2-((2S,4R)-2-(8-chloroquinolin-2-ylcarbamoyl)-4-fluoropyrrolidin-1-yl)-2-oxoethyl)-5-((5-fluoropyrimidin-2-yl)ethynyl)-1H-indazole-3-carboxamide] | < 1000 nM |
| NC(=O)c1nn(CC(=O)N2CC[C@@H](O)[C@H]2C(=O)NCc2cccc(Cl)c2F)c2ccc(C#Cc3ncccn3)cc12 [Compound 52, 1-(2-((2S,3R)-2-(3-chloro-2-fluorobenzylcarbamoyl)-3-hydroxypyrrolidin-1-yl)-2-oxoethyl)-5-(pyrimidin-2-ylethynyl)-1H-indazole-3-carboxamide] | < 1000 nM |
| NC(=O)c1nn(CC(=O)N2C[C@H](F)C[C@H]2C(=O)Nc2cncc(-c3c(F)cccc3Cl)n2)c2ccc(C#Cc3ncc(F)cn3)cc12 [Compound 86, 1-(2-((2S,4R)-2-(6-(2-chloro-6-fluorophenyl)pyrazin-2-ylcarbamoyl)-4-fluoropyrrolidin-1-yl)-2-oxoethyl)-5-((5-fluoropyrimidin-2-yl)ethynyl)-1H-indazole-3-carboxamide] | < 1000 nM |
| NC(=O)c1nn(CC(=O)N2C[C@H](F)C[C@H]2C(=O)Nc2cccc(C(F)(F)F)n2)c2ccc(C#Cc3ncccn3)cc12 [Compound 33, 1-(2-((2S,4R)-4-fluoro-2-(6-(trifluoromethyl)pyridin-2-ylcarbamoyl)pyrrolidin-1-yl)-2-oxoethyl)-5-(pyrimidin-2-ylethynyl)-1H-indazole-3-carboxamide] | < 1000 nM |
| CCS(=O)(=O)NC(=O)C#Cc1ccc2c(c1)c(C(C)=O)cn2CC(=O)N1C[C@H](F)C[C@H]1C(=O)NCc1cccc(Cl)c1F [Compound 8, (2S,4R)-1-(2-(3-acetyl-5-(3-(ethylsulfonamido)-3-oxoprop-1-ynyl)-1H-indol-1-yl)acetyl)-N-(3-chloro-2-fluorobenzyl)-4-fluoropyrrolidine-2-carboxamide] | < 1000 nM |
| NC(=O)c1nn(CC(=O)N2C[C@H](F)C[C@H]2C(=O)Nc2cccc(Cl)c2F)c2ccc(C#Cc3ncccn3)cc12 [Compound 25, 1-(2-((2S,4R)-2-(3-chloro-2-fluorophenylcarbamoyl)-4-fluoropyrrolidin-1-yl)-2-oxoethyl)-5-(pyrimidin-2-ylethynyl)-1H-indazole-3-carboxamide] | < 1000 nM |
| NC(=O)c1nn(CC(=O)N2C[C@H](F)C[C@H]2C(=O)NCc2cccc(Cl)c2F)c2cnc(C#Cc3ncccn3)cc12 [Compound 32, 1-(2-((2S,4R)-2-(3-chloro-2-fluorobenzylcarbamoyl)-4-fluoropyrrolidin-1-yl)-2-oxoethyl)-5-(pyrimidin-2-ylethynyl)-1H-pyrazolo[3,4-c]pyridine-3-carboxamide] | < 1000 nM |
| NC(=O)c1nn(CC(=O)N2C[C@H](F)C[C@H]2C(=O)Nc2cccc(Cl)n2)c2ccc(C#Cc3cnccn3)cc12 [Compound 82, 1-(2-((2S,4R)-2-(6-chloropyridin-2-ylcarbamoyl)-4-fluoropyrrolidin-1-yl)-2-oxoethyl)-5-(pyrazin-2-ylethynyl)-1H-indazole-3-carboxamide] | < 1000 nM |
| NC(=O)c1nn(CC(=O)N2C[C@H](F)C[C@H]2C(=O)NCc2cccc(Cl)c2F)c2ccc(C#Cc3ccc(F)cn3)cc12 [Compound 35, 1-(2-((2S,4R)-2-(3-chloro-2-fluorobenzylcarbamoyl)-4-fluoropyrrolidin-1-yl)-2-oxoethyl)-5-((5-fluoropyridin-2-yl)ethynyl)-1H-indazole-3-carboxamide] | < 1000 nM |
| CC(=O)c1cn(CC(=O)N2C[C@H](F)C[C@H]2C(=O)NCc2cccc(Cl)c2F)c2ccc(C#Cc3cnccn3)cc12 [Compound 26, (2S,4R)-1-(2-(3-acetyl-5-(pyrazin-2-ylethynyl)-1H-indol-1-yl)acetyl)-N-(3-chloro-2-fluorobenzyl)-4-fluoropyrrolidine-2-carboxamide] | < 1000 nM |
| Cc1cnc(C#Cc2ccc3c(c2)c(C(N)=O)nn3CC(=O)N2C[C@H](F)C[C@H]2C(=O)Nc2cccc(Br)n2)nc1 [Compound 91, 1-(2-((2S,4R)-2-(6-bromopyridin-2-ylcarbamoyl)-4-fluoropyrrolidin-1-yl)-2-oxoethyl)-5-((5-methylpyrimidin-2-yl)ethynyl)-1H-indazole-3-carboxamide] | < 1000 nM |
| CCS(=O)(=O)NC(=O)C#Cc1ccc2c(C(C)=O)cn(CC(=O)N3C[C@H](F)C[C@H]3C(=O)NCc3cccc(Cl)c3F)c2c1 [Compound 10, (2S,4R)-1-(2-(3-acetyl-6-(3-(ethylsulfonamido)-3-oxoprop-1-ynyl)-1H-indol-1-yl)acetyl)-N-(3-chloro-2-fluorobenzyl)-4-fluoropyrrolidine-2-carboxamide] | < 1000 nM |
